The supplement of paper PMC10307832

How the values were obtained:
Assay in all cases: relative viability (nuclei count vs DMSO), 5 days (fraction); higher = more cells survive
[1] = system: NCI-H1793
Summary of the method: (§1)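 Dosing by pin tool came one day after lung cancer cell lines were seeded in 1536-well plates, using either one drug or a fixed anchor-drug dose plus five library-drug doses (not always all listed) in √10 steps. After 5 days, nuclei were counted on 4× images. Relative viability is treated-well nuclei count divided by vehicle-well nuclei count, and values are medians of duplicate plates.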

[2] = system: A-427
Summary of the method: as §1

[3] = system: HCC-366
Summary of the method: as §1

[4] = system: NCI-H2023
Summary of the method: as §1

[5] = system: NCI-H2405
Summary of the method: as §1

[6] = system: NCI-H2009
Summary of the method: as §1

[7] = system: NCI-H1437
Summary of the method: as §1

[8] = system: UMC-11
Summary of the method: as §1

[9] = system: NCI-H596
Summary of the method: as §1

[10] = system: HARA
Summary of the method: as §1

[11] = system: NCI-H1975
Summary of the method: as §1

[12] = system: SK-LU-1
Summary of the method: as §1

[13] = system: NCI-H441
Summary of the method: as §1

[14] = system: NCI-H650
Summary of the method: as §1

[15] = system: PC-14
Summary of the method: as §1

[16] = system: NCI-H1755
Summary of the method: as §1

[17] = system: LXF-289
Summary of the method: as §1

[18] = system: H3255
Summary of the method: as §1

[19] = system: NCI-H1915
Summary of the method: as §1

[20] = system: NCI-H460
Summary of the method: as §1

[21] = system: PC-3 [JPC-3]
Summary of the method: as §1

[22] = system: NCI-H3122
Summary of the method: as §1

[23] = system: HCC-15
Summary of the method: as §1

O=c1[nH]c2ccccc2n1C1CCN(CCCC(c2ccc(F)cc2)c2ccc(F)cc2)CC1 [Pimozide] + O=C(CCCCCCC(=O)Nc1ccccc1)NO [Vorinostat] (partner 1 µM)
relative viability ([1]; first compound 0.08 µM): 0.642
relative viability ([1]; first compound 0.253 µM): 0.761
relative viability ([1]; first compound 0.8 µM): 0.693
relative viability ([1]; first compound 2.53 µM): 0.761
relative viability ([1]; first compound 8 µM): 0.624
relative viability ([2]; first compound 0.08 µM): 0.893
relative viability ([2]; first compound 0.253 µM): 0.875
relative viability ([2]; first compound 0.8 µM): 0.775
relative viability ([2]; first compound 2.53 µM): 0.854
relative viability ([2]; first compound 8 µM): 0.815
relative viability ([3]; first compound 0.08 µM): 0.457
relative viability ([3]; first compound 0.253 µM): 0.334
relative viability ([3]; first compound 0.8 µM): 0.142
relative viability ([3]; first compound 2.53 µM): 0.29
relative viability ([3]; first compound 8 µM): 0.309
relative viability ([4]; first compound 0.08 µM): 0.583
relative viability ([4]; first compound 0.253 µM): 0.747
relative viability ([4]; first compound 0.8 µM): 0.353
relative viability ([4]; first compound 2.53 µM): 0.547
relative viability ([4]; first compound 8 µM): 0.484
relative viability ([5]; first compound 0.08 µM): 1.01
relative viability ([5]; first compound 0.253 µM): 0.964
relative viability ([5]; first compound 0.8 µM): 0.955
relative viability ([5]; first compound 2.53 µM): 1.01
relative viability ([5]; first compound 8 µM): 0.791
relative viability ([6]; first compound 0.08 µM): 0.639
relative viability ([6]; first compound 0.253 µM): 0.764
relative viability ([6]; first compound 0.8 µM): 0.651
relative viability ([6]; first compound 2.53 µM): 0.698
relative viability ([6]; first compound 8 µM): 0.694
relative viability ([7]; first compound 0.08 µM): 0.786
relative viability ([7]; first compound 0.253 µM): 0.763
relative viability ([7]; first compound 0.8 µM): 0.767
relative viability ([7]; first compound 2.53 µM): 0.67
relative viability ([7]; first compound 8 µM): 0.405
relative viability ([8]; first compound 0.08 µM): 0.426
relative viability ([8]; first compound 0.253 µM): 0.388
relative viability ([8]; first compound 0.8 µM): 0.348
relative viability ([8]; first compound 2.53 µM): 0.382
relative viability ([8]; first compound 8 µM): 0.318
relative viability ([9]; first compound 0.08 µM): 0.702
relative viability ([9]; first compound 0.253 µM): 0.598
relative viability ([9]; first compound 0.8 µM): 0.467
relative viability ([9]; first compound 2.53 µM): 0.583
relative viability ([9]; first compound 8 µM): 0.549
relative viability ([10]; first compound 0.08 µM): 0.433
relative viability ([10]; first compound 0.253 µM): 0.477
relative viability ([10]; first compound 0.8 µM): 0.519
relative viability ([10]; first compound 2.53 µM): 0.484
relative viability ([10]; first compound 8 µM): 0.399
relative viability ([11]; first compound 0.08 µM): 0.746
relative viability ([11]; first compound 0.253 µM): 0.676
relative viability ([11]; first compound 0.8 µM): 0.672
relative viability ([11]; first compound 2.53 µM): 0.696
relative viability ([11]; first compound 8 µM): 0.563
relative viability ([12]; first compound 0.08 µM): 0.785
relative viability ([12]; first compound 0.253 µM): 0.72
relative viability ([12]; first compound 0.8 µM): 0.501
relative viability ([12]; first compound 2.53 µM): 0.724
relative viability ([12]; first compound 8 µM): 0.617
relative viability ([13]; first compound 0.08 µM): 0.699
relative viability ([13]; first compound 0.253 µM): 0.657
relative viability ([13]; first compound 0.8 µM): 0.74
relative viability ([13]; first compound 2.53 µM): 0.857
relative viability ([13]; first compound 8 µM): 0.687
relative viability ([14]; first compound 0.08 µM): 0.455
relative viability ([14]; first compound 0.253 µM): 0.386
relative viability ([14]; first compound 0.8 µM): 0.399
relative viability ([14]; first compound 2.53 µM): 0.454
relative viability ([14]; first compound 8 µM): 0.452
relative viability ([15]; first compound 0.253 µM): 0.711
relative viability ([15]; first compound 0.8 µM): 0.684
relative viability ([15]; first compound 2.53 µM): 0.713
relative viability ([15]; first compound 8 µM): 0.701
relative viability ([16]; first compound 0.08 µM): 0.886
relative viability ([16]; first compound 0.253 µM): 0.668
relative viability ([16]; first compound 0.8 µM): 0.721
relative viability ([16]; first compound 2.53 µM): 0.738
relative viability ([16]; first compound 8 µM): 0.682
relative viability ([17]; first compound 0.08 µM): 0.796
relative viability ([17]; first compound 0.253 µM): 0.748
relative viability ([17]; first compound 0.8 µM): 0.718
relative viability ([17]; first compound 2.53 µM): 0.88
relative viability ([17]; first compound 8 µM): 0.755
relative viability ([18]; first compound 0.253 µM): 0.699
relative viability ([18]; first compound 0.8 µM): 0.714
relative viability ([18]; first compound 2.53 µM): 0.843
relative viability ([18]; first compound 8 µM): 0.808
relative viability ([19]; first compound 0.08 µM): 0.525
relative viability ([19]; first compound 0.253 µM): 0.48
relative viability ([19]; first compound 2.53 µM): 0.432
relative viability ([19]; first compound 8 µM): 0.487
relative viability ([20]; first compound 0.08 µM): 0.727
relative viability ([20]; first compound 0.253 µM): 0.654
relative viability ([20]; first compound 0.8 µM): 0.711
relative viability ([20]; first compound 2.53 µM): 0.681
relative viability ([20]; first compound 8 µM): 0.664
relative viability ([21]; first compound 0.253 µM): 0.763
relative viability ([21]; first compound 0.8 µM): 0.716
relative viability ([21]; first compound 2.53 µM): 0.882
relative viability ([21]; first compound 8 µM): 0.726
relative viability ([22]; first compound 0.08 µM): 0.924
relative viability ([22]; first compound 0.253 µM): 0.951
relative viability ([22]; first compound 0.8 µM): 0.81
relative viability ([22]; first compound 2.53 µM): 0.724
relative viability ([22]; first compound 8 µM): 0.847
relative viability ([23]; first compound 0.08 µM): 0.828
relative viability ([23]; first compound 0.253 µM): 0.746
relative viability ([23]; first compound 0.8 µM): 0.83
relative viability ([23]; first compound 2.53 µM): 0.788
relative viability ([23]; first compound 8 µM): 0.703
